Like-named read-outs stand apart in the source and are kept apart here.
Key:
MCF-7 cells = assay: Antiproliferation WST-1 assay, MCF-7; assay type: cell-based, human
Experimental: (§1) WST-1 is better than MTT for analyzing cell proliferation, because it can be reduced to soluble formazan by dehydrogenase in mitochondria and has little toxicity to cells. Cell proliferation was determined using WST-1 dye (Beyotime Inst Biotech, China) according to manufacture’s instructions. Brieﬂy, 5 × 10^3 cells per well were seeded in a 96-well plate, grown at 37 ℃ for 24 h, and then placed in serum-starved conditions for a further 6 h. Subsequently, cells were treated with compounds (Table 1) at increasing concentrations in the presence of 10% FBS for 24 or 48h. After 10 µL WST-1 dye was added to each well, cells were incubated at 37 ℃ for 2 h and the absorbance was ﬁnally determined at 450 nm using a microplate reader.

A431 cells = assay: Antiproliferation WST-1 assay, A431; assay type: cell-based, human
Experimental: as §1

human EGFR = biological target: T1, human EGFR (Homo sapiens, UniProt P00533); assay: EGFR kinase assay ([γ-32P] ATP, poly-Glu-Tyr); assay type: biochemical; settings: phosphorylation of poly-Glu-Tyr copolymer; mean, >1 determination; read-out: Enzyme activity IC50 against EGFR kinase
T1 construct: the cytoplasmic domain (amino acids 669-1210) of human EGFR; FLAG (DYKDDDD) (N); made in house
Experimental: (§2) The expressed HER2 kinase and EGFR kinase were purified by anti-FLAG M2 affinity gel (Sigma-Aldrich, USA). The HER2 and EGFR kinase assays were performed using radiolabeled [γ-^32P] ATP (GEHealthcare, USA) in 96-well plates. The kinase reactions were performed in 50 mmol/L Tris-HCl, pH7.5, 5 mmol/L MnCl2, 0.01% Tween-20 and 2 mmol/L DTT containing 0.9 μCi of [γ-^32P] ATP per reaction, 50 μmol/L ATP, 5 μg/mL poly-Glu-Tyr (4:1) and 0.25 μg/mL of purified Her2 or EGFR cytoplasmic domain in a total volume of 50 μL. […] Kinase reactions were initiated by adding ATP. After the kinase reaction incubated for 10 minutes at room temperature, reactions were terminated by the addition of 10% (final concentration) trichloroacetic acid. The [γ-^32P]-phosphorylated proteins were filtered in a harvest plate (Millipore, USA) with a cell harvester (PerkinElmer, USA) and washed free of [γ-^32P] ATP with 3% phosphoric acid. The plates were dried, followed by the addition of 25 μL of MicroScintO (PerkinElmer, USA). Radioactivity was counted by a Topcount scintillation counter (PerkinElmer, USA).

A549 cells = assay: Antiproliferation WST-1 assay, A549; assay type: cell-based, human
Experimental: as §1

human HER2 = biological target: T2, human HER2 (Homo sapiens, UniProt P04626); assay: HER2 kinase assay ([γ-32P] ATP, poly-Glu-Tyr); assay type: biochemical; settings: phosphorylation of poly-Glu-Tyr copolymer; mean, >1 determination; read-out: Enzyme activity IC50 against HER2 kinase
T2 construct: The cytoplasmic domain (amino acids 676-1255) of human HER2; FLAG (DYKDDDD) (N); made in house
Experimental: as §2

H1781 cells = assay: Antiproliferation WST-1 assay, H1781; assay type: cell-based; settings: NCI-H1781, NSCLC, HER-2 G776ins V_G/C, lapatinib-resistant
Experimental: as §1

MDA-MB-453 cells = assay: Antiproliferation WST-1 assay, MDA-MB-453; assay type: cell-based; settings: Homo sapiens, breast cancer, HER-2++, PTEN deficiency
Experimental: as §1

H1975 cells = assay: Antiproliferation WST-1 assay, H1975; assay type: cell-based; settings: Homo sapiens, NCI-H1975, NSCLC, EGFR L858R/T790M
Experimental: as §1

[1] = Homo sapiens, MCF7, WST-1 assay, MCF-7 breast cancer, Her2/neu overexpression, read-out: Cellular IC50, MCF-7
[2] = WST-1 assay, MCF-7 breast cancer, Her2/neu overexpression, read-out: Cellular IC50, MCF-7
[3] = WST-1 assay, A549 carcinomic human alveolar basal epithelial cell, read-out: Cellular IC50, A549
[4] = Homo sapiens, A-431, WST-1 assay, A431, overexpression of EGFR, read-out: Cellular IC50, A431
[5] = WST-1 assay, A431, overexpression of EGFR, read-out: Cellular IC50, A431
[6] = Homo sapiens, MCF7, read-out: Cellular IC50, MCF-7
[7] = Homo sapiens, A549, read-out: Cellular IC50, A549

T2 sequence (P04626 676-1255): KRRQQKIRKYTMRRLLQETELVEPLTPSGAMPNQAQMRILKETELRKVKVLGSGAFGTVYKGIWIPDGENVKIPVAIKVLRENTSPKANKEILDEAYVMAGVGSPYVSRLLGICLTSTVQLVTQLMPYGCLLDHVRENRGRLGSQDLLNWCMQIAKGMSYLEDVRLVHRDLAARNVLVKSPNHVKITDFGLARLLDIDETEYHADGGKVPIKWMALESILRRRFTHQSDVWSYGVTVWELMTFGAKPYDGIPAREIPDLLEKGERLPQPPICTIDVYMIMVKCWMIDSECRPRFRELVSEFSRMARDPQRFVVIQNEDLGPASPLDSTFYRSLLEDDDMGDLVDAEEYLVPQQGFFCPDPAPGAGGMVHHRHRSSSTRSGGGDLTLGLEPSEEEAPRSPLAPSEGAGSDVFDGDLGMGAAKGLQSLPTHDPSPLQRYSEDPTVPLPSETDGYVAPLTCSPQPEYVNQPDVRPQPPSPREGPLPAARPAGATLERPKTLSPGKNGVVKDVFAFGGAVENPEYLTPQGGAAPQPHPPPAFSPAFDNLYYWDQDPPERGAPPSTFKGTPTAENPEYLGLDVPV
T1 sequence (P00533 669-1210): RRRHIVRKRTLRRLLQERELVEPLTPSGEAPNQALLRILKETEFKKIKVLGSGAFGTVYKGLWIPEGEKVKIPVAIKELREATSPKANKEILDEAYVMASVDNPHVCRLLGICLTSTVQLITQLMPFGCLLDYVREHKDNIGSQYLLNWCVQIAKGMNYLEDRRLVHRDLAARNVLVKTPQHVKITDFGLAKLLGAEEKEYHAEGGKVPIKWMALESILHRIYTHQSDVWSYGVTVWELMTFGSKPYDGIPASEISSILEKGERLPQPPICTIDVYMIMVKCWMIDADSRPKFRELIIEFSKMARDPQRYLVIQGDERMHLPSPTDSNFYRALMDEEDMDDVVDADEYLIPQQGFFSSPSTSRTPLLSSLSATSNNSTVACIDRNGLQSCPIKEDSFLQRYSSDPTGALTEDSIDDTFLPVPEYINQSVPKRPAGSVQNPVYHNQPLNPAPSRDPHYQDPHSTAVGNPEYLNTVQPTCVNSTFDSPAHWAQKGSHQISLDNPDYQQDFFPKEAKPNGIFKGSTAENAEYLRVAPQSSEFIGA

| Structure (SMILES) | IC50 (MCF-7 cells; [1]) [µM] | IC50 (A431 cells; Homo sapiens, A-431, read-out: Cellular IC50, A431) [µM] | IC50 (MCF-7 cells; [2]) [µM] | IC50 (human EGFR) [µM] | IC50 (A549 cells; [3]) [µM] | IC50 (human HER2) [µM] | IC50 (A431 cells; [4]) [µM] | IC50 (A431 cells; [5]) [µM] | melting point [°C] | IC50 (MCF-7 cells; [6]) [µM] | IC50 (A549 cells; [7]) [µM] | IC50 (H1781 cells) [µM] | IC50 (MDA-MB-453 cells) [µM] | IC50 (H1975 cells) [µM] |
| --- | --- | --- | --- | --- | --- | --- | --- | --- | --- | --- | --- | --- | --- | --- |
| Nc1ccc2ncnc(Nc3cccc(Br)c3)c2c1 [Compound 7, N4-(3-bromophenyl)quinazoline-4,6-diamine] | < 1 | < 1 |  |  |  |  |  |  |  |  |  |  |  |  |
| Oc1ccc(Cl)cc1CNc1ccc2ncnc(Nc3cccc(Br)c3)c2c1 [Compound 9, 2-((4-(3-bromophenylamino)quinazolin-6-ylamino)methyl)-4-chlorophenol] | < 1 |  | 0.77 ± 0.008 | 0.41 ± 0.024 | 2.37 ± 0.089 | 1.7 ± 0.051 | < 1 | 0.98 ± 0.003 | 230 to 232 |  |  |  |  |  |
| Oc1c(Cl)cc(Cl)cc1CNc1ccc2ncnc(Nc3cccc(Br)c3)c2c1 [Compound 10, 2-((4-(3-bromophenylamino)quinazolin-6-ylamino)methyl)-4,6-dichlorophenol] | 0.84 ± 0.004 |  |  | 0.72 ± 0.036 | 1.93 ± 0.071 | 1.1 ± 0.095 | 1.03 ± 0.027 |  | 214 to 216 |  |  |  |  |  |
| Oc1ccc(Br)cc1CNc1ccc2ncnc(Nc3cccc(Br)c3)c2c1 [Compound 11, 4-bromo-2-((4-(3-bromophenylamino)quinazolin-6-ylamino)methyl)phenol] | 0.9 ± 0.018 |  |  | 0.57 ± 0.008 | 2.13 ± 0.128 | 1.4 ± 0.003 | 0.87 ± 0.009 |  | 189 to 191 |  |  |  |  |  |
| Oc1c(Br)cc(Br)cc1CNc1ccc2ncnc(Nc3cccc(Br)c3)c2c1 [Compound 12, 2,4-dibromo-6-((4-(3-bromophenylamino)quinazolin-6-ylamino)methyl)phenol] | < 1 |  | 1.07 ± 0.016 | 0.95 ± 0.072 | 1.82 ± 0.062 | 0.98 ± 0.002 | < 1 | 1.14 ± 0.036 | 169 to 171 |  |  |  |  |  |
| Oc1ccc(Cl)cc1CNc1ccc2ncnc(Nc3cccc(Cl)c3)c2c1 [Compound 13, 4-chloro-2-((4-(3-chlorophenylamino)quinazolin-6-ylamino)methyl)phenol] | < 1 |  | 0.92 ± 0.012 | 0.83 ± 0.065 | 2.17 ± 0.049 | 2.3 ± 0.034 | < 1 | 1.26 ± 0.051 | 238 to 240 |  |  |  |  |  |
| Oc1c(Cl)cc(Cl)cc1CNc1ccc2ncnc(Nc3cccc(Cl)c3)c2c1 [Compound 14, 2,4-dichloro-6-((4-(3-chlorophenylamino)quinazolin-6-ylamino)methyl)phenol] | 0.8 ± 0.005 |  |  | 0.65 ± 0.009 | 1.59 ± 0.038 | 0.92 ± 0.009 | 0.92 ± 0.062 |  | 211 to 213 |  |  |  |  |  |
| Oc1ccc(Br)cc1CNc1ccc2ncnc(Nc3cccc(Cl)c3)c2c1 [Compound 15, 4-bromo-2-((4-(3-chlorophenylamino)quinazolin-6-ylamino)methyl)phenol] | 0.81 ± 0.033 |  |  | 0.76 ± 0.073 | 2.12 ± 0.022 | 3.8 ± 0.002 | 0.96 ± 0.005 |  | 227 to 229 |  |  |  |  |  |
| Oc1c(Br)cc(Br)cc1CNc1ccc2ncnc(Nc3cccc(Cl)c3)c2c1 [Compound 16, 2,4-dibromo-6-((4-(3-chlorophenylamino)quinazolin-6-ylamino)methyl)phenol] | 0.99 ± 0.006 |  |  | 0.89 ± 0.053 | 1.65 ± 0.094 | 2.1 ± 0.0087 | 1.32 ± 0.126 |  | 207 to 209 |  |  |  |  |  |
| O=C(Nc1ccc2ncnc(Nc3cccc(Br)c3)c2c1)c1ccc(Cl)cc1O [Compound 17, N-(4-(3-bromophenylamino)quinazolin-6-yl)-4-chloro-2-hydroxybenzamide] | 1.21 ± 0.029 |  |  | 1.2 ± 0.071 | 1.59 ± 0.035 | 2.8 ± 0.0031 | 1.46 ± 0.027 |  | 274 to 277 |  |  |  |  |  |
| O=C(Nc1ccc2ncnc(Nc3cccc(Br)c3)c2c1)c1cc(Br)ccc1O [Compound 18, 5-bromo-N-(4-(3-bromophenylamino)quinazolin-6-yl)-2-hydroxybenzamide] | 1.23 ± 0.035 |  |  | 1.3 ± 0.098 | 0.8 ± 0.004 | 1.6 ± 0.012 | 1.62 ± 0.008 |  | 297 to 299 |  |  |  |  |  |
| O=C(Nc1ccc2ncnc(Nc3cccc(Br)c3)c2c1)c1cc(Cl)ccc1O [Compound 19, N-(4-(3-bromophenylamino)quinazolin-6-yl)-5-chloro-2-hydroxybenzamide] | 1.12 ± 0.087 |  |  | 1.07 ± 0.018 | 1.77 ± 0.056 | 1.8 ± 0.009 | 1.28 ± 0.013 |  | 304 to 306 |  |  |  |  |  |
| O=C(Nc1ccc2ncnc(Nc3cccc(Br)c3)c2c1)c1cc(Br)cc(Br)c1O [Compound 20, 3,5-dibromo-N-(4-(3-bromophenylamino)quinazolin-6-yl)-2-hydroxybenzamide] | 1.31 ± 0.029 |  |  | 1.4 ± 0.023 | 1.8 ± 0.167 | 2.1 ± 0.066 | 1.39 ± 0.023 |  | 274 to 276 |  |  |  |  |  |
| O=C(Nc1ccc2ncnc(Nc3cccc(Cl)c3)c2c1)c1ccccc1O [Compound 22, N-(4-(3-chlorophenylamino)quinazolin-6-yl)-2-hydroxybenzamide] | 0.61 ± 0.005 |  |  | 0.16 ± 0.007 | 1.39 ± 0.054 | 0.84 ± 0.003 | 0.74 ± 0.006 |  | 117 to 120 |  |  |  |  |  |
| O=C(Nc1ccc2ncnc(Nc3cccc(Cl)c3)c2c1)c1ccc(Cl)cc1O [Compound 23, 4-chloro-N-(4-(3-chlorophenylamino)quinazolin-6-yl)-2-hydroxybenzamide] | 0.55 ± 0.007 |  |  | 0.32 ± 0.008 | 1.36 ± 0.016 | 1.2 ± 0.022 | 0.84 ± 0.009 |  | 211 to 213 |  |  |  |  |  |
| Cc1ccc(C(=O)Nc2ccc3ncnc(Nc4cccc(Cl)c4)c3c2)c(O)c1 [Compound 24, N-(4-(3-chlorophenylamino)quinazolin-6-yl)-2-hydroxy-4-methylbenzamide] | 0.47 ± 0.004 |  |  | 0.49 ± 0.003 | 1.3 ± 0.012 | 2 ± 0.182 | 0.63 ± 0.004 |  | 257 to 258 |  |  |  |  |  |
| O=C(Nc1ccc2ncnc(Nc3cccc(Cl)c3)c2c1)c1cc(Br)ccc1O [Compound 25, 5-bromo-N-(4-(3-chlorophenylamino)quinazolin-6-yl)-2-hydroxybenzamide] | 0.74 ± 0.013 |  |  | 0.58 ± 0.007 | 1.69 ± 0.078 | 2.6 ± 0.133 | 0.88 ± 0.011 |  | 299 to 301 |  |  |  |  |  |
| CCOc1ccccc1C(=O)Nc1ccc2ncnc(Nc3cccc(Cl)c3)c2c1 [Compound 26, N-(4-(3-chlorophenylamino)quinazolin-6-yl)-2-ethoxybenzamide] | 0.82 ± 0.082 |  |  | 6.3 ± 0.076 | 1.58 ± 0.093 | 4.1 ± 0.091 | 0.76 ± 0.002 |  | 111 to 113 |  |  |  |  |  |
| O=C(Nc1ccc2ncnc(Nc3cccc(Br)c3)c2c1)c1ccc(Cl)cc1 [Compound 27, N-(4-(3-bromophenylamino)quinazolin-6-yl)-4-chlorobenzamide] | 1.29 ± 0.076 |  |  | 7.7 ± 0.088 | 1.78 ± 0.034 | 4.6 ± 0.226 | 1.48 ± 0.034 |  | 230 to 232 |  |  |  |  |  |
| C#Cc1cccc(Nc2ncnc3cc(OCCOC)c(OCCOC)cc23)c1 [Erlotinib, reference compound] |  |  |  |  |  |  |  |  |  | 1.07 ± 0.028 | 0.92 ± 0.013 |  |  |  |
| CS(=O)(=O)CCNCc1ccc(-c2ccc3ncnc(Nc4ccc(OCc5cccc(F)c5)c(Cl)c4)c3c2)o1 [Lapatinib, reference compound] |  |  |  |  |  |  |  |  |  | 0.21 ± 0.003 | 1.12 ± 0.022 | 2.1 ± 0.034 | 0.72 ± 0.023 | 3.9 ± 0.419 |
